How the values were obtained:
Details in all cases: Na+ 10 mM; Mg2+ carried over from 12 mM annealing buffer; 5 mM TRIS pH 7.0, 20 °C; 0.5 µM DNA, 160 µM PIC; super aggregate
[1] = tested on: AT + AF (DX-tile) (DNA, junction, amino modifier C6 dT at 19 of strand 5) TCAGAAGAACAAAAAAAAAA/ACGCATTTGTCGTTCTTCTGATGACCTTGCA/GTACACCTCGCTTTTTTTTTTGTGTCTGCAA/TTGCAGACACGACAAATGCGT/TGCAAGGTCCGCGAGGTGTAC; test: absorbance (580 nm aggregate peak, AF red shift)
[2] = tested on: GC + AF (DX-tile) (DNA, junction, amino modifier C6 dT at 19 of strand 5) TCAGAAGAACGCGCGCGCGC/ACGCATTTGTCGTTCTTCTGATGACCTTGCA/GTACACCTCGAGCGCGCGCGCTTGTCTGCAA/TTGCAGACAAGACAAATGCGT/TGCAAGGTCCGCGAGGTGTAC; test: absorbance (580 nm aggregate peak, AF red shift)
[3] = tested on: dsDNA + AF (DNA, duplex, amino modifier C6 dT at 19 of strand 1) TGCAAGGTCCGCGAGGTGTAC/GTACACCTCGCGGACCTTGCA; test: absorbance (580 nm aggregate peak, AF red shift)
[4] = tested on: ssDNA + AF (Strand 5-AF) (DNA, single strand, amino modifier C6 dT at 19) TGCAAGGTCCGCGAGGTGTAC; test: absorbance (580 nm aggregate peak, AF red shift)
[5] = tested on: AT (DX-tile) (DNA, junction) TCAGAAGAACAAAAAAAAAA/ACGCATTTGTCGTTCTTCTGATGACCTTGCA/GTACACCTCGCTTTTTTTTTTGTGTCTGCAA/TTGCAGACACGACAAATGCGT/TGCAAGGTCCGCGAGGTGTAC; test: fluorescence emission (523 nm excitation), aggregate formation
[6] = tested on: GC (DX-tile) (DNA, junction) TCAGAAGAACGCGCGCGCGC/ACGCATTTGTCGTTCTTCTGATGACCTTGCA/GTACACCTCGAGCGCGCGCGCTTGTCTGCAA/TTGCAGACAAGACAAATGCGT/TGCAAGGTCCGCGAGGTGTAC; test: as above
[7] = tested on: dsDNA (DNA, duplex) TGCAAGGTCCGCGAGGTGTAC/GTACACCTCGCGGACCTTGCA; test: as above
[8] = tested on: ssDNA (DNA, single strand) TGCAAGGTCCGCGAGGTGTAC; test: as above

Measured: binding

CCN1C(=Cc2ccc3ccccc3[n+]2CC)C=Cc2ccccc21
yes: all assays above

Reference: PMC10362908 (2023)
